# Test results taken from PubChem BioAssay (NCI).
#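 Where inhibition never reached the appropriate level, the endpoint shown equals the highest concentration tested. Otherwise, values were interpolated linearly from a five-concentration, 48-hour dose response in 96-well plates. Here, GI50 denotes the concentration required for 50% inhibition of growth. TGI denotes the concentration required for complete inhibition of growth.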
# Columns and labels:
# Experiment in all cases: NCI-60 cell line screen, 48 h
# 786-0 renal = system: 786-0 renal
# A498 renal = system: A498 renal
# A549 NSCLC = system: A549 NSCLC
# ACHN renal = system: ACHN renal
# BT-549 breast = system: BT-549 breast
# CAKI-1 renal = system: CAKI-1 renal
# CCRF-CEM leukemia = system: CCRF-CEM leukemia
# COLO 205 colon = system: COLO 205 colon
# DU-145 prostate = system: DU-145 prostate
# EKVX NSCLC = system: EKVX NSCLC
# HCC-2998 colon = system: HCC-2998 colon
# HCT-116 colon = system: HCT-116 colon
# HCT-15 colon = system: HCT-15 colon
# HL-60(TB) leukemia = system: HL-60(TB) leukemia
# HOP-62 NSCLC = system: HOP-62 NSCLC
# HOP-92 NSCLC = system: HOP-92 NSCLC
# HS 578T breast = system: HS 578T breast
# HT29 colon = system: HT29 colon
# IGROV1 ovarian = system: IGROV1 ovarian
# K-562 leukemia = system: K-562 leukemia
# KM12 colon = system: KM12 colon
# LOX IMVI melanoma = system: LOX IMVI melanoma
# M14 melanoma = system: M14 melanoma
# MALME-3M melanoma = system: MALME-3M melanoma
# MCF7 breast = system: MCF7 breast
# MDA-MB-231 breast = system: MDA-MB-231 breast
# MDA-MB-435 = system: MDA-MB-435
# MOLT-4 leukemia = system: MOLT-4 leukemia
# NCI-H226 lung = system: NCI-H226 lung
# NCI-H23 lung = system: NCI-H23 lung
# NCI-H460 lung = system: NCI-H460 lung
# NCI-H522 lung = system: NCI-H522 lung
# NCI/ADR-RES ovarian = system: NCI/ADR-RES ovarian
# OVCAR-3 ovarian = system: OVCAR-3 ovarian
# OVCAR-4 ovarian = system: OVCAR-4 ovarian
# OVCAR-5 ovarian = system: OVCAR-5 ovarian
# OVCAR-8 ovarian = system: OVCAR-8 ovarian
# PC-3 prostate = system: PC-3 prostate
# RPMI-8226 leukemia = system: RPMI-8226 leukemia
# RXF 393 renal = system: RXF 393 renal
# SF-268 CNS = system: SF-268 CNS
# SF-295 CNS = system: SF-295 CNS
# SF-539 CNS = system: SF-539 CNS
# SK-MEL-2 melanoma = system: SK-MEL-2 melanoma
# SK-MEL-28 melanoma = system: SK-MEL-28 melanoma
# SK-MEL-5 melanoma = system: SK-MEL-5 melanoma
# SK-OV-3 ovarian = system: SK-OV-3 ovarian
# SN12C renal = system: SN12C renal
# SNB-19 CNS = system: SNB-19 CNS
# SNB-75 CNS = system: SNB-75 CNS
# SR leukemia = system: SR leukemia
# SW-620 colon = system: SW-620 colon
# T-47D breast = system: T-47D breast
# TK-10 renal = system: TK-10 renal
# U251 CNS = system: U251 CNS
# UACC-257 melanoma = system: UACC-257 melanoma
# UACC-62 melanoma = system: UACC-62 melanoma
# UO-31 renal = system: UO-31 renal
smiles,measurement,setting,value
CCC(=O)Nc1cc(Nc2cc(NC3CC3)n3ncc(C#N)c3n2)ccc1C,GI50,786-0 renal,3.46 µM
same,TGI,786-0 renal,43.5 µM
same,GI50,A498 renal,0.0965 µM
same,TGI,A498 renal,1.16 µM
same,GI50,A549 NSCLC,1.8 µM
same,TGI,A549 NSCLC,17.3 µM
same,GI50,ACHN renal,1.67 µM
same,TGI,ACHN renal,15.6 µM
same,GI50,BT-549 breast,1.11 µM
same,TGI,BT-549 breast,7.45 µM
same,GI50,CAKI-1 renal,0.43 µM
same,TGI,CAKI-1 renal,3.29 µM
same,GI50,CCRF-CEM leukemia,1.68 µM
same,TGI,CCRF-CEM leukemia,> 100 µM
same,GI50,COLO 205 colon,0.981 µM
same,TGI,COLO 205 colon,16.3 µM
same,GI50,DU-145 prostate,3.96 µM
same,TGI,DU-145 prostate,73.3 µM
same,GI50,EKVX NSCLC,1.16 µM
same,TGI,EKVX NSCLC,45 µM
same,GI50,HCC-2998 colon,2.46 µM
same,TGI,HCC-2998 colon,18.9 µM
same,GI50,HCT-116 colon,0.737 µM
same,TGI,HCT-116 colon,12 µM
same,GI50,HCT-15 colon,1.25 µM
same,TGI,HCT-15 colon,29.6 µM
same,GI50,HL-60(TB) leukemia,0.6 µM
same,TGI,HL-60(TB) leukemia,12.3 µM
same,GI50,HOP-62 NSCLC,1.84 µM
same,TGI,HOP-62 NSCLC,25.7 µM
same,GI50,HOP-92 NSCLC,0.449 µM
same,TGI,HOP-92 NSCLC,6.39 µM
same,GI50,HS 578T breast,0.216 µM
same,TGI,HS 578T breast,1.03 µM
same,GI50,HT29 colon,2.18 µM
same,TGI,HT29 colon,> 100 µM
same,GI50,IGROV1 ovarian,1.27 µM
same,TGI,IGROV1 ovarian,6.29 µM
same,GI50,K-562 leukemia,1.1 µM
same,TGI,K-562 leukemia,> 100 µM
same,GI50,KM12 colon,1.81 µM
same,TGI,KM12 colon,47 µM
same,GI50,LOX IMVI melanoma,1.57 µM
same,TGI,LOX IMVI melanoma,12.9 µM
same,TGI,M14 melanoma,12.5 µM
same,GI50,MALME-3M melanoma,2.2 µM
same,TGI,MALME-3M melanoma,69.3 µM
same,GI50,MCF7 breast,0.421 µM
same,TGI,MCF7 breast,10.7 µM
same,GI50,MDA-MB-231 breast,1.63 µM
same,TGI,MDA-MB-231 breast,23.3 µM
same,GI50,MDA-MB-435,2.06 µM
same,TGI,MDA-MB-435,30.7 µM
same,GI50,MOLT-4 leukemia,3.93 µM
same,TGI,MOLT-4 leukemia,52.2 µM
same,GI50,NCI-H226 lung,1.51 µM
same,TGI,NCI-H226 lung,16.6 µM
same,GI50,NCI-H23 lung,1.12 µM
same,TGI,NCI-H23 lung,14.9 µM
same,GI50,NCI-H460 lung,0.772 µM
same,TGI,NCI-H460 lung,12.3 µM
same,GI50,NCI-H522 lung,2.48 µM
same,TGI,NCI-H522 lung,27.1 µM
same,GI50,NCI/ADR-RES ovarian,2.99 µM
same,TGI,NCI/ADR-RES ovarian,30.3 µM
same,GI50,OVCAR-3 ovarian,1.1 µM
same,TGI,OVCAR-3 ovarian,14.6 µM
same,GI50,OVCAR-4 ovarian,1.66 µM
same,TGI,OVCAR-4 ovarian,67.1 µM
same,GI50,OVCAR-5 ovarian,0.955 µM
same,TGI,OVCAR-5 ovarian,33 µM
same,GI50,OVCAR-8 ovarian,3.63 µM
same,TGI,OVCAR-8 ovarian,> 100 µM
same,GI50,PC-3 prostate,1.73 µM
same,TGI,PC-3 prostate,23.3 µM
same,GI50,RPMI-8226 leukemia,1.77 µM
same,TGI,RPMI-8226 leukemia,17.6 µM
same,GI50,RXF 393 renal,3.29 µM
same,TGI,RXF 393 renal,15.5 µM
same,GI50,SF-268 CNS,2.32 µM
same,TGI,SF-268 CNS,57.4 µM
same,GI50,SF-295 CNS,2.34 µM
same,TGI,SF-295 CNS,14.8 µM
same,GI50,SF-539 CNS,1.81 µM
same,TGI,SF-539 CNS,46.9 µM
same,GI50,SK-MEL-2 melanoma,2.65 µM
same,TGI,SK-MEL-2 melanoma,18.6 µM
same,GI50,SK-MEL-28 melanoma,4.02 µM
same,TGI,SK-MEL-28 melanoma,> 100 µM
same,GI50,SK-MEL-5 melanoma,1.6 µM
same,TGI,SK-MEL-5 melanoma,9.15 µM
same,GI50,SK-OV-3 ovarian,1.6 µM
same,TGI,SK-OV-3 ovarian,9.04 µM
same,GI50,SN12C renal,3.16 µM
same,TGI,SN12C renal,> 100 µM
same,GI50,SNB-19 CNS,1.77 µM
same,TGI,SNB-19 CNS,> 100 µM
same,GI50,SNB-75 CNS,0.0521 µM
same,TGI,SNB-75 CNS,0.974 µM
same,GI50,SR leukemia,1.78 µM
same,TGI,SR leukemia,> 100 µM
same,GI50,SW-620 colon,1.28 µM
same,TGI,SW-620 colon,19 µM
same,GI50,T-47D breast,1.05 µM
same,TGI,T-47D breast,9.87 µM
same,GI50,TK-10 renal,0.987 µM
same,TGI,TK-10 renal,7.52 µM
same,GI50,U251 CNS,0.94 µM
same,TGI,U251 CNS,> 100 µM
same,GI50,UACC-257 melanoma,1.77 µM
same,TGI,UACC-257 melanoma,53.6 µM
same,GI50,UACC-62 melanoma,1.22 µM
same,TGI,UACC-62 melanoma,12.1 µM
same,GI50,UO-31 renal,2.09 µM
same,TGI,UO-31 renal,13.7 µM
